Measurements from patent US20240262833A1, “FUSED HETEROCYCLIC DERIVATIVES AS NEGATIVE ALLOSTERIC MODULATORS OF MGLU7 RECEPTOR” (Addex Pharma S.A., priority 2021, published 2024).
pIC50: −log10 of the molar value.

These compounds were tested against T1, human metabotropic glutamate 7 receptor (hmGlu7) (Homo sapiens, UniProt Q14831) (assay: mGlu7 assay on HEK-expressing human mGlu7: fluorescent cell based Ca2+ mobilization assay (FLIPR), inhibition of EC80 L-AP4 response). Conditions: HEK-293 cells expressing hmGlu7; EC80 L-AP4 stimulation; mean of at least three independent experiments in duplicate; read-out: Ca2+ Flux (mean IC50).
T1 construct: expressed in transfected cells
T1 sequence (Q14831 35-922 isoform Q14831-2): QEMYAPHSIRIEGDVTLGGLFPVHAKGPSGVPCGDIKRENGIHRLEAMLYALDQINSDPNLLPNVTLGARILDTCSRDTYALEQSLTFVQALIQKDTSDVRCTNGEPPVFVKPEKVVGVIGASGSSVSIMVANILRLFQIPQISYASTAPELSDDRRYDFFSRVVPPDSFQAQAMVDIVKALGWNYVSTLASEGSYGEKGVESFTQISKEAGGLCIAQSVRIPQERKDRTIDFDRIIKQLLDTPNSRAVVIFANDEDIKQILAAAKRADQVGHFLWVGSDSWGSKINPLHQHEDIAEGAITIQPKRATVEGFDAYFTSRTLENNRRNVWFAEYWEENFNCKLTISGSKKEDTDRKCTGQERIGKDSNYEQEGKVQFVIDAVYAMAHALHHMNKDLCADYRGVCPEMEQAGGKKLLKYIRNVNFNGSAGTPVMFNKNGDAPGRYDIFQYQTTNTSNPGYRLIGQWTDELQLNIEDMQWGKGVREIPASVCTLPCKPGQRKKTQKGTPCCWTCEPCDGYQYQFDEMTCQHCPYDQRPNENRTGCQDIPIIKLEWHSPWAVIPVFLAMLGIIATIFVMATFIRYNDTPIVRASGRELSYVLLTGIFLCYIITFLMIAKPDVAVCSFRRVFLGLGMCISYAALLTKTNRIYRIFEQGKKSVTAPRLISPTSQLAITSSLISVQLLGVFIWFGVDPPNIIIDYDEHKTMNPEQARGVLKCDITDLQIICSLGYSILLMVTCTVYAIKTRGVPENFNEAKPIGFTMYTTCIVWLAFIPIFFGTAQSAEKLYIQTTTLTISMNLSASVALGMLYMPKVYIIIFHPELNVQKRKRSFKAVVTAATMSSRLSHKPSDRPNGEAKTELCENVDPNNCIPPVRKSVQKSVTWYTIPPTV
Description: mGlu7 Assay on HEK-Expressing Human mGlu7
The cDNA encoding the human metabotropic glutamate 7 receptor (hmGlu7), (accession number NM_181874.2, NCBI Nucleotide database browser), was subcloned into an expression vector containing also the hygromycin resistance gene. In parallel, the cDNA encoding a G protein allowing redirection of the activation signal to intracellular calcium flux was subcloned into a different expression vector containing also the Puromycin resistance gene. Transfection of both these vectors into HEK293 cells with PolyFect reagent (Qiagen) according to supplier's protocol, and hygromycin and puromycin treatment allowed selection of antibiotic resistant cells which had integrated stably one or more copies of the plasmids. Positive cellular clones expressing hmGlu7 were identified in a functional assay measuring changes in calcium fluxes in response to glutamate and L-AP4 or known mGlu7 orthosteric antagonists.
HEK-293 cells expressing hmGlu7 were maintained in media containing DMEM, Fetal Bovine Serum (10%), Glutamax™ (2 mM), penicillin (100 units/mL), streptomycin (100 μg/mL), geneticin (100 μg/mL) and hygromycin-B (40 μg/mL) and puromycin (1 μg/mL) at 37° C. with 5% CO2 in a humidified atmosphere.
Fluorescent Cell Based-Ca^2+ Mobilization Assay Human mGlu7 HEK-293 cells were plated out 24 hours prior to a fluorescent cell-based calcium mobilization assay using FLIPR^384 assay (Molecular Device, Sunnyvale, CA, USA) in black-walled, clear-bottomed, poly-L-ornithine-coated 384-well plates at a density of 25,000 cells/well in a glutamine/glutamate free DMEM medium containing fetal bovine serum (10%), penicillin (100 units/mL), streptomycin (100 μg/mL) and doxycyline (1 μg/ml) at 37° C. with 5% CO2 in a humidified atmosphere.
On the day of the assay, the medium was aspirated and the cells were loaded with a 3 μM solution of Fluo4-AM (LuBioScience, Lucerne, Switzerland) in 0.03% pluronic acid. After 1 hour at 37° C./5% CO2, the non incorporated dye was removed by washing cell plate with the assay buffer. All assays were performed in a pH 7.4 buffered-solution containing 20 mM HEPES, 143 mM NaCl, 6 mM KCl, 1 mM MgSO4, 1 mM CaCl2, 0.125 mM sulfinpyrazone and 0.1% glucose.
After 10 s of basal fluorescence recording, various concentrations of the compounds of the invention were added to the cells. Changes in fluorescence levels were first monitored for 180 s in order to detect any agonist activity of the compounds. Then the cells were stimulated by an EC80 L-AP4 concentration for an additional 110 s in order to measure inhibiting activities of the compounds of the invention. EC80 L-AP4 concentration is the concentration giving 80% of the maximal glutamate response.
The concentration-response curves of L-AP4 or representative compounds of the present invention were generated using the Prism GraphPad software (Graph Pad Inc, San Diego, USA). The curves were fitted to a four-parameter logistic equation: […]
allowing determination of IC50 values.
The Table 3 below represents the mean IC50 obtained from at least three independent experiments of selected molecules performed in duplicate.

Row | Compound | pIC50
1 | Cc1c2cnn(-c3ccccn3)c(=O)c2c(C)n1-c1ccc2ccn(C)c2c1 [1-96, 5,7-Dimethyl-6-(1-methyl-1H-indol-6-yl)-2-(pyridin-2-yl)-2,6-dihydro-1H-pyrrolo[3,4-d]pyridazin-1-one] | 5.00 to 6.00
2 | Cc1cccc(-n2ncc3c(C)n(-c4cccc(N5CCOCC5)c4)c(C)c3c2=O)c1 [1-84] | 5.00 to 6.00
3 | COc1cccc(-n2c(C)c3cnn(-c4cccc(OC)n4)c(=O)c3c2C)c1 [1-74] | 5.00 to 6.00
4 | Cc1cccc(-n2c(C)c3cnn(-c4cccnc4)c(=O)c3c2C)c1 [1-40] | 6.00 to 7.00
5 | Cc1ccc(-n2c(C)c3cnn(-c4cccnc4)c(=O)c3c2C)cc1 [1-39] | 6.00 to 7.00
6 | Cc1c2cnn(-c3ccccc3)c(=O)c2c(C)n1-c1cccc(N2CCOCC2)c1 [1-33] | 6.00 to 7.00
7 | Cc1ccc(-n2c(C)c3cnn(-c4ccccn4)c(=O)c3c2C)c(C)c1 [1-201] | 6.00 to 7.00
8 | COc1cccc(-n2c(C)c3cnn(-c4ccccn4)c(=O)c3c2C)c1F [1-233] | 6.00 to 7.00
9 | Cc1c2cnn(-c3ccccn3)c(=O)c2c(C)n1-c1cccc(Oc2ccccc2)c1 [1-187] | 5.00 to 6.00
10 | COc1cccc(-n2c(C)c3cnn(-c4ccc(N5CCOCC5)cc4)c(=O)c3c2C)c1 [1-70] | 6.00 to 7.00
11 | COc1cc(-n2c(C)c3cnn(-c4ccccn4)c(=O)c3c2C)ccc1C [1-79] | 6.00 to 7.00
12 | Cc1c2cnn(-c3ccccn3)c(=O)c2c(C)n1-c1ccccc1 [1-22] | 5.00 to 6.00
13 | Cc1ccc(-n2c(C)c3cnn(-c4cccc(C)c4)c(=O)c3c2C)cc1 [1-99] | 6.00 to 7.00
14 | CCOc1cccc(-n2c(C)c3cnn(-c4ccccn4)c(=O)c3c2C)c1 [1-77] | 6.00 to 7.00
15 | COc1cccc(-n2c(C)c3cnn(-c4ccccn4)c(=O)c3c2C)c1Cl [1-197] | 6.00 to 7.00
16 | COCc1ccc(-n2ncc3c(C)n(-c4cccc(N5CCOCC5)c4)c(C)c3c2=O)cc1 [1-69] | 6.00 to 7.00
17 | Cc1c2cnn(-c3nccs3)c(=O)c2c(C)n1-c1cccc(N2CCC2)c1 [1-227] | 5.00 to 6.00
18 | Cc1c2cnn(-c3ccc(C(=O)CNC(=O)OC(C)(C)C)cc3)c(=O)c2c(C)n1-c1cccc(N2CCC2)c1 [1-184] | 6.00 to 7.00

Second part, the compound after the results:

Row | pIC50 | Compound
19 | > 7.00 | COc1cnc(-n2ncc3c(C)n(-c4cccc(N5CCC5)c4)c(C)c3c2=O)nc1 [1-224]
20 | 6.00 to 7.00 | Cc1c2cnn(-c3cccc(F)c3)c(=O)c2c(C)n1-c1ccccc1 [1-10]
21 | > 7.00 | Cc1c2cnn(-c3ccc(C(C)(C)O)cc3)c(=O)c2c(C)n1-c1cccc(N2CCC2)c1 [1-170, 6-(3-(Azetidin-1-yl)phenyl)-2-(4-(2-hydroxypropan-2-yl)phenyl)-5,7-dimethyl-2,6-dihydro-1H-pyrrolo[3,4-d]pyridazin-1-one]
22 | > 7.00 | Cc1c2cnn(-c3ncc(F)cn3)c(=O)c2c(C)n1-c1cc(F)cc(N2CCC2)c1 [1-208]
23 | 6.00 to 7.00 | CCc1cccc(-n2c(C)c3cnn(-c4ccccn4)c(=O)c3c2C)c1 [1-85]
24 | > 7.00 | Cc1c2cnn(-c3ccccn3)c(=O)c2c(C)n1-c1cc(N2CCC2)ccc1F [1-196]
25 | > 7.00 | Cc1c2cnn(-c3ncccc3F)c(=O)c2c(C)n1-c1cc(F)cc(N2CCC2)c1 [1-209]
26 | 6.00 to 7.00 | COc1ccnc(-n2ncc3c(C)n(-c4cccc(N5CCC5)c4)c(C)c3c2=O)c1 [1-229]
27 | 6.00 to 7.00 | Cc1c2cnn(-c3ccccn3)c(=O)c2c(C)n1-c1cccc(N2CC(F)(F)C2)c1 [1-153]
28 | > 7.00 | COc1cccc(-n2c(C)c3cnn(-c4ccccc4F)c(=O)c3c2C)c1 [1-149]
29 | > 7.00 | CCOc1cccc(-n2ncc3c(C)n(-c4cccc(OC)c4)c(C)c3c2=O)c1 [1-144]
30 | > 7.00 | Cc1c2cnn(-c3ncccc3F)c(=O)c2c(C)n1-c1cccc(N2CCC2)c1 [1-225]
31 | > 7.00 | COc1cccc(-n2c(C)c3cnn(-c4cccc(OC)c4)c(=O)c3c2C)c1 [1-130]
32 | > 7.00 | Cc1c(OC2CC2)cccc1-n1c(C)c2cnn(-c3ncc(F)cn3)c(=O)c2c1C [1-212]
33 | > 7.00 | Cc1cc(-n2ncc3c(C)n(-c4cccc(N5CCC5)c4)c(C)c3c2=O)cc(C)n1 [1-165]
